Data published in publication PMC6271335, “Anti-Cholinesterase Activity of Lycopodium Alkaloids from Vietnamese Huperzia squarrosa (Forst.) Trevis” (Molecules, 2014).

Target: AChE (acetylcholinesterase) (Electrophorus electricus, UniProt O42275)
Test: Ellman spectrophotometric assay
Format: biochemical

Sequence of AChE (acetylcholinesterase) (O42275 24-633): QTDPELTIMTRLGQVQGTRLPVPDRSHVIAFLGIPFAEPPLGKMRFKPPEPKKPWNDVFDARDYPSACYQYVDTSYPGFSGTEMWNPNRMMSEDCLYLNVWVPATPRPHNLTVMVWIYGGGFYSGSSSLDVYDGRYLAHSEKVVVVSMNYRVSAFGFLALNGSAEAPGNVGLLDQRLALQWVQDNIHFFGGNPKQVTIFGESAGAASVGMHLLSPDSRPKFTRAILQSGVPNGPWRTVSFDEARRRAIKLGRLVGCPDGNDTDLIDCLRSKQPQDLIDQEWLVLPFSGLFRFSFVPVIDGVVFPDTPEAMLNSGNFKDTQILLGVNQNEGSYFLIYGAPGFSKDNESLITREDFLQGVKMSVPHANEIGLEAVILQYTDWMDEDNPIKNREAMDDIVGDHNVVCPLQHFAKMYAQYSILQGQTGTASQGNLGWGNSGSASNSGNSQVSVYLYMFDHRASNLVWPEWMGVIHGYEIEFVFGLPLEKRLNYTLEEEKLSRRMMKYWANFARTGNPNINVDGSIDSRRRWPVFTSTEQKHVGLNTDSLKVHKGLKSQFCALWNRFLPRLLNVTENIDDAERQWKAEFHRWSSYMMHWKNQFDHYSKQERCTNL

Compound | IC50
CC(=O)OC1C(C)CC(=O)N2CCCC3=C(CCC2)C1CC3=O (stereo not drawn) [compound 1, lycosquarosine A] | 170 µM
COc1ccc2cc3[n+](cc2c1OC)CCc1cc2c(cc1-3)OCO2 [Berberine, reference compound] | 0.268 µM
acetylaposerratinine [compound 2] | 15.2 µg/mL
